≈ marks a conversion by molar mass, not a printed value. Like-named read-outs stand apart in the source and are kept apart here.
Assays:
[1] = system: Bacteriodes fragilis A22534; format: cell-based
[2] = system: Bacteriodes fragilis CUH-108; format: cell-based
[3] = system: Bacillus subtilis PCI-219; test: microbe, parasite or virus in culture; format: cell-based
[4] = system: Bacteriodes fragilis A22533; format: cell-based
[5] = system: Bacteriodes fragilis A22695; format: cell-based
[6] = system: Micrococcus luteus PCI-1001; test: microbe, parasite or virus in culture; format: cell-based
Escherichia coli NIHJ = format: cell-based
[7] = system: Morganella morganii A9553; format: cell-based
[8] = system: Staphylococcus aureus BX-1633; format: cell-based
[9] = system: Staphylococcus epidermidis D153; format: cell-based
[10] = system: Staphylococcus epidermidis A22152; format: cell-based
[11] = system: Klebsiella pnuemonia D-11; format: cell-based; settings: D11
Proteus vulgaris A9436 = format: cell-based
[12] = system: Enterobacter cloacae A9659; test: microbe, parasite or virus in culture; format: cell-based
[13] = system: Staphylococcus aureus A15097; format: cell-based
[14] = system: Staphylococcus aureus D136; format: cell-based
[15] = system: Strpetococcus faecalis A9612; format: cell-based
[16] = system: Staphylococcus aureus A20239; format: cell-based
[17] = system: Pseudomonas aeruginosa A9930; format: cell-based
[18] = system: Staphylococcus aureus 52-34; format: cell-based; settings: 5234
Proteus mirabilis A9554 = format: cell-based
[19] = system: Serratia marcescens A20222; test: microbe, parasite or virus in culture; format: cell-based
[20] = system: Bacteriodes fragilis A22021; format: cell-based
P388 leukemia = format: in vivo, mice (male BDF1 strain); settings: for T/C % of MST: ip, once daily for 9 days
[21] = system: Bacteriodes fragilis A22053; format: cell-based
[22] = system: Propionibacterium acnes A21933; format: cell-based; settings: Cutibacterium acnes
[23] = system: Peptostreptococcus anaerobius A21905; format: cell-based
[24] = system: various gram-positive and anaerobic bacteria; format: cell-based
[25] = system: aerobic gram-negative organisms; format: cell-based
B16 melanoma = test: Antitumor activity in mice, B16 melanoma; format: in vivo, mice (male BDF1 strain); settings: ip; for T/C % of MST: once daily for 9 days
L1210 leukemia = test: Antitumor activity in mice, L1210 leukemia; format: in vivo, mice (male BDF1 strain); settings: ip; for T/C % of MST: once daily for 9 days
[26] = system: aerobic gram-positive bacteria; format: cell-based
anaerobic bacteria = format: cell-based
[27] = system: Clostridium perfringens A22787; test: microbe, parasite or virus in culture; format: cell-based
[28] = system: Clostridium difficile A21675; format: cell-based; settings: Clostridioides difficile, GAM agar, 10^7-10^8 inoculum
[29] = system: Bacteriodes fragilis A22693; format: cell-based; settings: GAM agar, 10^7-10^8 inoculum
[30] = Bacteriodes fragilis CUH-108, GAM agar, 10^7-10^8 inoculum, read-out: MIC
[31] = Bacteriodes fragilis A22533, GAM agar, 10^7-10^8 inoculum, read-out: MIC
[32] = Bacteriodes fragilis A22695, GAM agar, 10^7-10^8 inoculum, read-out: MIC

CC1(C)S[C@@H]2[C@H](NC(=O)[C@H](N)c3ccccc3)C(=O)N2[C@H]1C(=O)O [Ampicillin, reference compound]
MIC ([1]; Bacteriodes fragilis A22534, GAM agar, 10^7-10^8 inoculum, read-out: MIC): > 100 µg/mL | MIC [2, 30]: 50 µg/mL (≈ 143 µM) | MIC ([3]; PCI219): 0.025 µg/mL (≈ 0.0715 µM) | MIC [4, 31]: > 100 µg/mL | MIC [5, 32]: > 100 µg/mL | MIC ([6]; PCI1001, read-out: MIC): < 0.0063 µg/mL

NC[C@H]1O[C@H](O[C@H]2[C@H](O)[C@@H](O[C@H]3O[C@H](CO)[C@@H](O)[C@H](N)[C@H]3O)[C@H](N)C[C@@H]2N)[C@H](O)[C@@H](O)[C@@H]1O [Kanamycin, reference compound]
MIC (Escherichia coli NIHJ; read-out: MIC): 1.6 µg/mL (≈ 3.3 µM) | MIC [7]: 6.3 µg/mL (≈ 13 µM) | MIC ([8]; BX1633, read-out: MIC): 0.8 µg/mL (≈ 1.65 µM) | MIC [9]: 0.8 µg/mL (≈ 1.65 µM) | MIC [10]: 25 µg/mL (≈ 51.6 µM) | MIC [11]: 0.4 µg/mL (≈ 0.826 µM) | MIC (Proteus vulgaris A9436; read-out: MIC): 0.8 µg/mL (≈ 1.65 µM) | MIC ([12]; read-out: MIC): 3.1 µg/mL (≈ 6.4 µM) | MIC ([13]; read-out: MIC): 0.8 µg/mL (≈ 1.65 µM) | MIC ([3]; PCI219, read-out: MIC): 0.2 µg/mL (≈ 0.413 µM) | MIC ([14]; read-out: MIC): 0.8 µg/mL (≈ 1.65 µM) | MIC [15]: 25 µg/mL (≈ 51.6 µM) | MIC [16]: 100 µg/mL (≈ 206 µM) | MIC [17]: 6.3 µg/mL (≈ 13 µM) | MIC [18]: 0.8 µg/mL (≈ 1.65 µM) | MIC (Proteus mirabilis A9554): 6.3 µg/mL (≈ 13 µM) | MIC ([6]; PCI1001): 6.3 µg/mL (≈ 13 µM) | MIC ([19]; read-out: MIC): 3.1 µg/mL (≈ 6.4 µM)

COc1cccc2c1N[C@H](O)[C@@H]1CC(/C=C/C(=O)N(C)C)=CN1C2=O [BMY-28121 A]
MIC (Escherichia coli NIHJ): 50 µg/mL (≈ 146 µM) | MIC [7]: > 50 µg/mL | MIC ([8]; BX1633): 12.5 µg/mL (≈ 36.4 µM) | MIC [9]: 3.1 µg/mL (≈ 9.03 µM) | MIC ([20]; read-out: MIC): 0.8 µg/mL (≈ 2.33 µM) | antitumor activity against experimental tumors in mice (P388 leukemia; mouse, in vivo): marked antitumor activity | times more active than mitomycin C in terms of minimum effective dose (P388 leukemia; mouse, in vivo): approximately 4 times | MIC [11]: > 50 µg/mL | MIC (Proteus vulgaris A9436): > 50 µg/mL | MIC [12]: > 50 µg/mL | MIC ([21]; read-out: MIC): 0.8 µg/mL (≈ 2.33 µM) | MIC ([2]; read-out: MIC): 0.8 µg/mL (≈ 2.33 µM) | MIC [13]: 12.5 µg/mL (≈ 36.4 µM) | MIC ([22]; read-out: MIC): 0.4 µg/mL (≈ 1.16 µM) | MIC [15]: 12.5 µg/mL (≈ 36.4 µM) | MIC [16]: 12.5 µg/mL (≈ 36.4 µM) | MIC ([23]; read-out: MIC): 0.4 µg/mL (≈ 1.16 µM) | MIC [17]: > 50 µg/mL | MIC [18]: 3.1 µg/mL (≈ 9.03 µM) | antibacterial activity [24]: possess antibacterial activity | in vitro activity against aerobic gram-negative organisms [25]: did not show any in vitro activity | MIC (Proteus mirabilis A9554): > 50 µg/mL | MIC ([6]; PCI1001): 12.5 µg/mL (≈ 36.4 µM) | MIC [19]: > 50 µg/mL

CO[C@@]12[C@H](COC(N)=O)C3=C(C(=O)C(C)=C(N)C3=O)N1C[C@@H]1N[C@@H]12 [Mitomycin C, reference compound]
T/C % of MST (B16 melanoma; 0.5 mg/kg/day): 164% | T/C % of MST (B16 melanoma; 1 mg/kg/day): 191% | T/C % of MST (L1210 leukemia; 0.13 mg/kg/day): 129% | T/C % of MST (L1210 leukemia; 0.25 mg/kg/day): 129% | T/C % of MST (L1210 leukemia; 0.5 mg/kg/day): 141% | T/C % of MST (L1210 leukemia; 1 mg/kg/day): 141% | T/C % of MST (P388 leukemia; 0.13 mg/kg/day, P388 leukemia): 150% | T/C % of MST (P388 leukemia; 0.25 mg/kg/day, P388 leukemia): 180% | T/C % of MST (P388 leukemia; 0.5 mg/kg/day, P388 leukemia): 240% | T/C % of MST (P388 leukemia; 1 mg/kg/day, P388 leukemia): 450%

COc1cccc2c1N[C@H](OC)[C@@H]1CC(/C=C/C(=O)N(C)C)=CN1C2=O [BMY-28121 B, 1,10,11,11a-tetrahydro-9,11-dimethoxy-5H-pyrrolo-[2,1-c][1,4]benzodiazepine-5-one-2-N,N-dimethylacrylamide]
MIC (Escherichia coli NIHJ): > 50 µg/mL | MIC [7]: > 50 µg/mL | susceptibility of aerobic gram-positive bacteria [26]: moderately susceptible | MIC ([8]; BX1633): 6.3 µg/mL (≈ 17.6 µM) | T/C % of MST (B16 melanoma; 0.13 mg/kg/day): 113% | T/C % of MST (B16 melanoma; 0.25 mg/kg/day): 131% | activity against B16 melanoma (B16 melanoma): marginally active | solubility (in ethyl acetate and ethyl ether): slightly soluble | solubility (in methanol, ethanol, chloroform, pyridine, and dimethylformamide): readily soluble | solubility (in n-hexane and water): practically insoluble | MIC [20]: 0.2 µg/mL (≈ 0.56 µM) | T/C % of MST (L1210 leukemia; 0.13 mg/kg/day): 129% | T/C % of MST (L1210 leukemia; 0.25 mg/kg/day): 129% | therapeutic activity against L1210 leukemia (L1210 leukemia): potent therapeutic activity | T/C % of MST (P388 leukemia; 0.008 mg/kg/day, P388 leukemia): 120% | T/C % of MST (P388 leukemia; 0.13 mg/kg/day, P388 leukemia): 200% | T/C % of MST (P388 leukemia; 0.25 mg/kg/day, P388 leukemia): 210% | times more active than mitomycin C in terms of minimum effective dose (P388 leukemia; P388 leukemia, vs mitomycin C): approximately 4 times | antitumor activity against experimental tumors in mice (P388 leukemia; eg. P388 leukemia in mice): marked antitumor activity | MIC [1]: 0.4 µg/mL (≈ 1.12 µM) | MIC [11]: > 50 µg/mL | MIC (Proteus vulgaris A9436): > 50 µg/mL | MIC [12]: > 50 µg/mL | inhibition of anaerobic bacteria (anaerobic bacteria): inhibited all of the gram-positive and negative organisms | MIC [21]: 0.4 µg/mL (≈ 1.12 µM) | MIC [2]: 0.4 µg/mL (≈ 1.12 µM) | MIC [13]: 6.3 µg/mL (≈ 17.6 µM) | MIC [14]: 6.3 µg/mL (≈ 17.6 µM) | MIC [22]: 0.4 µg/mL (≈ 1.12 µM) | MIC [15]: 6.3 µg/mL (≈ 17.6 µM) | MIC [16]: 6.3 µg/mL (≈ 17.6 µM) | MIC [23]: 0.2 µg/mL (≈ 0.56 µM) | MIC [17]: > 50 µg/mL | antibacterial activity [24]: possess antibacterial activity | MIC [4]: 0.8 µg/mL (≈ 2.24 µM) | in vitro activity against aerobic gram-negative organisms [25]: did not show any in vitro activity | MIC (Proteus mirabilis A9554): > 50 µg/mL | MIC [5]: 0.4 µg/mL (≈ 1.12 µM) | MIC [27]: 0.4 µg/mL (≈ 1.12 µM) | MIC ([6]; PCI1001): 12.5 µg/mL (≈ 35 µM) | MIC [19]: > 50 µg/mL

CCC[C@@H]1C[C@@H](C(=O)N[C@@H]([C@H]2O[C@H](SC)[C@H](O)[C@@H](O)[C@H]2O)[C@H](C)Cl)N(C)C1 [Clindamycin]
MIC ([20]; Bacteriodes fragilis A22021, GAM agar, 10^7-10^8 inoculum, read-out: MIC): 0.1 µg/mL (≈ 0.235 µM) | MIC [28]: 50 µg/mL (≈ 118 µM) | MIC ([21]; Bacteriodes fragilis A22053, GAM agar, 10^7-10^8 inoculum, read-out: MIC): 0.2 µg/mL (≈ 0.471 µM) | MIC [2, 30]: 100 µg/mL (≈ 235 µM) | MIC [29]: 0.1 µg/mL (≈ 0.235 µM) | MIC [4, 31]: 0.1 µg/mL (≈ 0.235 µM) | MIC [5, 32]: 0.1 µg/mL (≈ 0.235 µM)

From patent US4935362A, “BMY-28121, a new antitumor antibiotic” (Bristol-Myers Company, priority 1987, dated 1990)
